Results as given in US8222247B2, “Modulators of glucocorticoid receptor, AP-1, and/or NF-kappabeta activity and use thereof” (Bristol-Myers Squibb Company, priority 2006, dated 2012).
Like-named read-outs stand apart in the source and are kept apart here.

System: AP-1 induced transcriptional activity
Test: Cellular Transrepressional Assay (AP-1 luciferase reporter in A549 cell, PMA activated)
Type: cell-based
Conditions: pAP-1-Luc; for Emax / AP-1 Max % inh (Cellular Transrepression Assay): maximum inhibition, PMA; for Emax: read-out: AP-1 Max % inh (Cellular Transrepression Assay); for EC50: 10 ng/ml PMA, 7 hours, read-out: AP-1 EC50, nM (Cellular Transrepression Assay)
Description: Cellular Transrepressional Assay
To measure the ability of test molecules to inhibit AP-1 induced transcriptional activity we utilized an A549 cell which was stably transfected with a plasmid containing 7×AP-1 DNA binding sites (pAP-1-Luc plasmid, Stratagene Co. La Jolla, Calif.) followed by the gene for luciferase. Cells were activated with 10 ng/ml of phorbol myristic acid (PMA) plus or minus test molecules for 7 hours. After 7 hours a luciferase reagent was added to measure luciferase enzymatic activity in the cell. After a 10 minute incubation of luciferase reagent with cells, luminescence was measured in a TopCount luminescence counter. Repression of AP-1 activity was calculated as the percentage decrease in the signal induced by PMA alone. Test molecules were analyzed in the concentration range from 0.1 nM to 40 μM. EC50s were determined by using standard curve fitting methods such as Excel fit (Microsoft Co.). An EC50 is the test molecule concentration at which there is a 50% repression of the maximal inhibition of transcription, i.e. a 50% reduction of AP-1 activity.

## CC(C(=O)Nc1nncs1)C(c1cccc(F)c1)c1ccc(-c2ccc(C(=O)N(C)C)cc2)s1 (single isomer, unassigned) [Example 102, 4-(5-(1-(3-fluorophenyl)-2-methyl-3-oxo-3-(1,3,4-thiadiazol-2-ylamino)propyl)-2-thienyl)-N,N-dimethylbenzamide]
Homo sapiens, A549, 7 h
  Emax: 52.6%
  EC50: 10.6 nM

## CCN(C)C(=O)c1ccc(-c2ccc(C(c3ccccc3)C(C)C(=O)Nc3nncs3)s2)cc1 (single isomer, unassigned) [Example 150, N-ethyl-N-methyl-4-(5-(2-methyl-3-oxo-1-phenyl-3-(1,3,4-thiadiazol-2-ylamino)propyl)-2-thienyl)benzamide]
Homo sapiens, A549, 7 h
  Emax: 57.2%
  EC50: 17.5 nM

## CN(C)C(=O)c1ccc(-c2ccc(C(c3cccc(F)c3)C(C)(C)C(=O)Nc3nccs3)s2)cc1 (centres unmarked) [Example 42, 4-(5-(1-(3-Fluorophenyl)-2,2-dimethyl-3-oxo-3-(1,3-thiazol-2-ylamino)propyl)-2-thienyl)-N,N-dimethylbenzamide]
Homo sapiens, A549, 7 h
  Emax: 42.9%
  EC50: 11.6 nM

## CC(C(=O)Nc1nncs1)C(c1cccc(F)c1)c1ccc(-c2ccc(C(=O)N(C)C)c(Cl)c2)s1 (single isomer, unassigned) [Example 104, 2-chloro-4-(5-(1-(3-fluorophenyl)-2-methyl-3-oxo-3-(1,3,4-thiadiazol-2-ylamino)propyl)-2-thienyl)-N,N-dimethylbenzamide]
Homo sapiens, A549, 7 h
  Emax: 49.5%
  EC50: 38.7 nM

## C[C@@H](C(=O)Nc1nncs1)[C@H](c1cccc(F)c1)c1ccc(-c2ccc(C(=O)N3CCOCC3)cc2)s1 [Example 109, (2R,3R)-3-(3-fluorophenyl)-2-methyl-3-(5-(4-(4-morpholinylcarbonyl)phenyl)-2-thienyl)-N-1,3,4-thiadiazol-2-ylpropanamide]
Homo sapiens, A549, 7 h
  Emax: 57.5%
  EC50: 8.39 nM

## CC(C)Cc1ccc(-c2ccc(C(c3cccc(F)c3)C(C)(C)C(=O)Nc3nncs3)s2)cc1 (centres unmarked) [Example 39, 3-(3-fluorophenyl)-3-(5-(4-isobutylphenyl)-2-thienyl)-2,2-dimethyl-N-1,3,4-thiadiazol-2-ylpropanamide]
Homo sapiens, A549, 7 h
  Emax: 44.2%
  EC50: 18.8 nM

## CCN(C)C(=O)c1ccc(-c2ccc(C(c3ccccc3)C(C)(C)C(=O)Nc3nncs3)s2)cc1 (centres unmarked) [Example 50, 4-(5-(2,2-dimethyl-3-oxo-1-phenyl-3-(1,3,4-thiadiazol-2-ylamino)propyl)-2-thienyl)-N-ethyl-N-methylbenzamide]
Homo sapiens, A549, 7 h
  Emax: 39.6%
  EC50: 13.2 nM

## C[C@@H](C(=O)Nc1nncs1)[C@@H](c1cccc(F)c1)c1ccc(Br)s1 [Example 96, (2R,3S)-3-(5-bromo-2-thienyl)-3-(3-fluorophenyl)-2-methyl-N-1,3,4-thiadiazol-2-ylpropanamide]
Homo sapiens, A549, 7 h
  Emax: 27.4%
  EC50: 71.1 nM

## C[C@@H](C(=O)Nc1nncs1)[C@H](c1cccc(F)c1)c1ccc(-c2ccc(C(=O)N(C)C)cc2)s1 [Example 117, 4-(5-((1R,2R)-1-(3-fluorophenyl)-2-methyl-3-oxo-3-(1,3,4-thiadiazol-2-ylamino)propyl)-2-thienyl)-N,N-dimethylbenzamide]
Homo sapiens, A549, 7 h
  Emax: 56.5%
  EC50: 14.4 nM

## CC(C(=O)Nc1nncs1)C(c1cccc(F)c1)c1ccc(-c2ccc(C(=O)N(C)C)c(Cl)c2)s1 (single isomer, unassigned) [Example 105, 2-chloro-4-(5-(1-(3-fluorophenyl)-2-methyl-3-oxo-3-(1,3,4-thiadiazol-2-ylamino)propyl)-2-thienyl)-N,N-dimethylbenzamide]
  AP-1 Max % inh (Cellular Transrepression Assay): 48.50 % inh
  EC50: 446 nM

## CN(C)C(=O)c1ccc(-c2ccc(C(c3ccccc3)C(C)(C)C(=O)Nc3nncs3)s2)cc1Cl (centres unmarked) [Example 86, 2-chloro-4-(5-(2,2-dimethyl-3-oxo-1-phenyl-3-(1,3,4-thiadiazol-2-ylamino)propyl)-2-thienyl)-N,N-dimethylbenzamide]
  AP-1 Max % inh (Cellular Transrepression Assay): 36.20 % inh
  EC50: 53.9 nM

## C[C@@H](C(=O)Nc1nncs1)[C@H](c1cccc(F)c1)c1ccc(-c2ccc(C(=O)N3CCCC3)c(Cl)c2)s1 [Example 115, (2R,3R)-3-(5-(3-chloro-4-(1-pyrrolidinylcarbonyl)phenyl)-2-thienyl)-3-(3-fluorophenyl)-2-methyl-N-1,3,4-thiadiazol-2-ylpropanamide]
Homo sapiens, A549, 7 h
  Emax: 39.1%
  EC50: 31 nM

## C[C@@H](C(=O)Nc1nncs1)[C@H](c1cccc(F)c1)c1ccc(-c2ccc(C(=O)N3CCC(F)(F)C3)cc2)s1 [Example 121, (2R,3R)-3-(5-(4-((3,3-difluoro-1-pyrrolidinyl)carbonyl)phenyl)-2-thienyl)-3-(3-fluorophenyl)-2-methyl-N-1,3,4-thiadiazol-2-ylpropanamide]
Homo sapiens, A549, 7 h
  Emax: 28.7%
  EC50: 66.8 nM

## CCN(C)C(=O)c1ccc(-c2ccc(C(c3cccc(F)c3)C(C)C(=O)Nc3nncs3)s2)cc1 (single isomer, unassigned) [Example 99, N-ethyl-4-(5-(1-(3-fluorophenyl)-2-methyl-3-oxo-3-(1,3,4-thiadiazol-2-ylamino)propyl)-2-thienyl)-N-methylbenzamide]
  AP-1 Max % inh (Cellular Transrepression Assay): 49.36 % inh
  EC50: 279 nM

## CCCc1ccc(-c2ccc(C(c3ccccc3)C(C)(C)C(=O)Nc3nncs3)cn2)cc1 (centres unmarked) [Example 30, 2,2-dimethyl-3-phenyl-3-(6-(4-propylphenyl)-3-pyridinyl)-N-1,3,4-thiadiazol-2-ylpropanamide]
Homo sapiens, A549, 7 h
  Emax: 39.4%
  EC50: 49 nM

## CCN(C)C(=O)c1ccc(-c2ccc([C@H](c3cccc(F)c3)C(C)(C)C(=O)Nc3nncs3)s2)cc1F [Example 80, N-ethyl-2-fluoro-4-(5-((1R)-1-(3-fluorophenyl)-2,2-dimethyl-3-oxo-3-(1,3,4-thiadiazol-2-ylamino)propyl)-2-thienyl)-N-methylbenzamide]
Homo sapiens, A549, 7 h
  Emax: 33.6%
  EC50: 34.7 nM

## CCN(C)C(=O)c1ccc(-c2ccc([C@@H](c3cccc(F)c3)[C@@H](C)C(=O)Nc3nncs3)s2)cc1 [Example 107, N-ethyl-4-(5-((1R,2R)-1-(3-fluorophenyl)-2-methyl-3-oxo-3-(1,3,4-thiadiazol-2-ylamino)propyl)-2-thienyl)-N-methylbenzamide]
Homo sapiens, A549, 7 h
  Emax: 52.5%
  EC50: 15.9 nM

## CN(C)C(=O)c1ccc(-c2ccc(C(c3cc(F)cc(F)c3)C(C)(C)C(=O)Nc3nncs3)s2)cc1 (centres unmarked) [Example 90, 4-(5-(1-(3,5-difluorophenyl)-2,2-dimethyl-3-oxo-3-(1,3,4-thiadiazol-2-ylamino)propyl)-2-thienyl)-N,N-dimethylbenzamide]
Homo sapiens, A549, 7 h
  Emax: 32.7%
  EC50: 20.6 nM

## CCN(C)C(=O)c1ccc(-c2ccc([C@H](c3cccc(F)c3)C(C)(C)C(=O)Nc3nncs3)s2)cc1 [Example 68, N-ethyl-4-(5-((1R)-1-(3-fluorophenyl)-2,2-dimethyl-3-oxo-3-(1,3,4-thiadiazol-2-ylamino)propyl)-2-thienyl)-N-methylbenzamide]
Homo sapiens, A549, 7 h
  Emax: 49.4%
  EC50: 7.31 nM

## CC(C)Oc1ccc(-c2ccc([C@@H](c3cccc(F)c3)[C@@H](C)C(=O)Nc3nncs3)s2)cc1 [Example 113, (2R,3R)-3-(3-fluorophenyl)-3-(5-(4-isopropoxyphenyl)-2-thienyl)-2-methyl-N-1,3,4-thiadiazol-2-ylpropanamide]
Homo sapiens, A549, 7 h
  Emax: 37.8%
  EC50: 17.9 nM

## C[C@@H](C(=O)Nc1nncs1)[C@H](c1cccc(F)c1)c1ccc(-c2ccc(C(=O)N3CCCC3)cc2)s1 [Example 118, (2R,3R)-3-(3-fluorophenyl)-2-methyl-3-(5-(4-(1-pyrrolidinylcarbonyl)phenyl)-2-thienyl)-N-1,3,4-thiadiazol-2-ylpropanamide]
Homo sapiens, A549, 7 h
  Emax: 55.3%
  EC50: 61.6 nM

## CCN(C)C(=O)c1ccc(-c2ccc(C(c3ccccc3)C(C)C(=O)Nc3nncs3)s2)cc1 (single isomer, unassigned) [Example 151, N-ethyl-N-methyl-4-(5-(2-methyl-3-oxo-1-phenyl-3-(1,3,4-thiadiazol-2-ylamino)propyl)-2-thienyl)benzamide]
  AP-1 Max % inh (Cellular Transrepression Assay): 48.08 % inh
  EC50: 203 nM

## CCN(C)C(=O)c1ccc(-c2ccc([C@@H](c3cccc(F)c3)[C@@H](C)C(=O)Nc3nncs3)s2)cc1F [Example 120, N-ethyl-2-fluoro-4-(5-((1R,2R)-1-(3-fluorophenyl)-2-methyl-3-oxo-3-(1,3,4-thiadiazol-2-ylamino)propyl)-2-thienyl)-N-methylbenzamide]
Homo sapiens, A549, 7 h
  Emax: 42.9%
  EC50: 22.9 nM

## CC(C)Cc1ccc(-c2ccc(C(c3ccccc3)C(C)(C)C(=O)Nc3nncs3)cn2)cc1 (centres unmarked) [Example 31, 3-(6-(4-isobutylphenyl)-3-pyridinyl)-2,2-dimethyl-3-phenyl-N-1,3,4-thiadiazol-2-ylpropanamide]
Homo sapiens, A549, 7 h
  Emax: 46.8%
  EC50: 21.5 nM

## CCN(C)C(=O)c1ccc(-c2ccc([C@@H](c3cccc(F)c3)[C@@H](C)C(=O)Nc3nnc(C)s3)s2)cc1 [Example 141, N-Ethyl-4-(5-((1R,2R)-1-(3-fluorophenyl)-2-methyl-3-((5-methyl-1,3,4-thiadiazol-2-yl)amino)-3-oxopropyl)-2-thienyl)-N-methylbenzamide]
Homo sapiens, A549, 7 h
  Emax: 46%
  EC50: 62.2 nM
